In US8871934B2, “Fluorene compound and pharmaceutical use thereof” (Japan Tobacco Inc., priority 2008, dated 2014) one finds IC50 data, which are given here for 56 compounds.

The target in the assay is human PDHK2 (hPDHK2) (Homo sapiens (Human), UniProt Q15119). The assay can be described thus: Inhibitory action of PDHK activity in vitro (kinase reaction, residual PDH activity measured). The assay is classed as biochemical.
Where [1] appears, read: PDHK inhibitory activity, class symbol of IC50.
[2] abbreviates: read-out: PDHK inhibitory activity IC50.
The mark [3] stands for this setting: PDHK inhibitory activity (class symbol).
Where [4] appears, read: PDHK inhibitory activity IC50 (μmol/L).

Like-named read-outs stand apart in the source and are kept apart here. A value given as a limit tells only on which side of the number the result lay.

Regarding `Cn1cc(-c2cc(OCCNC(=O)CCC(=O)C(F)(F)F)cc3c2-c2ccccc2C3(O)C(F)(F)F)cn1` (stereo not shown) [compound 464], the IC50 is less than 100 nM under setting [1] and 42 nM under setting [2].

With `OC1(C(F)(F)F)c2ccccc2-c2c(-c3cncnc3)cc(Cl)cc21` (stereo not shown) [compound 335], the IC50 under setting [1] was less than 100 nM and the IC50 under setting [2] was 80 nM.

As for `OCc1ccccc1-c1ccc2c(c1)C(O)(C(F)(F)F)c1ccccc1-2` (stereo not shown) [compound 189], the IC50 was more than 1000 nM under setting [1] and 6000 nM under setting [2].

Consider `OCCCCOc1cc(-c2cnn(CCO)c2)c2c(c1)C(O)(C(F)(F)F)c1ccccc1-2` (single isomer, unassigned) [compound 624], for which the IC50 is, setting by setting: under setting [3], less than 100 nM; under setting [2], 14 nM.

For the compound `CCc1cc(C(N)=O)c2c(c1)C(O)(C(F)(F)F)c1ccccc1-2` (stereo not shown) [compound 633], the IC50 is 100 to 1000 nM under setting [3] and 560 nM under setting [2].

Consider `NC(=O)COC1CN(C(=O)c2cc(Cl)c3c(c2)C(O)(C(F)(F)F)c2ccccc2-3)C1` (stereo not shown) [compound 349], for which the IC50 is 100 to 1000 nM under setting [1] and 126 nM under setting [2].

On to `O=C(COc1cc(-c2cnn(CCO)c2)c2c(c1)C(O)(C(F)(F)F)c1ccccc1-2)N1CCC1` (stereo not shown) [compound 496], for which the IC50 was less than 100 nM under setting [1] and 23 nM under setting [2].

As to `Cc1cc(C(=O)N2CC(CO)C2)cc2c1-c1ccccc1C2(O)C(F)(F)F` (stereo not shown) [compound 351], the IC50 is, setting by setting: under setting [1], 100 to 1000 nM; under setting [2], 168 nM.

Consider `O=C(O)Cn1cc(-c2cc(F)cc3c2-c2ccccc2[C@]3(O)C(F)(F)F)cn1` (stereo in doubt) [compound 551], for which the IC50 is, setting by setting: under setting [4], 109 nM; under setting [1], 100 to 1000 nM.

With `CNC(=O)Cn1cc(-c2cc(C)cc3c2-c2ccccc2[C@]3(O)C(F)(F)F)cn1` (stereo in doubt) [compound 533], the IC50 was 15 nM under setting [4] and less than 100 nM under setting [1].

On to `NC(=O)COc1cc(Cl)c2c(c1)C(O)(C(F)(F)F)c1ccccc1-2` (stereo not shown) [compound 385], for which the IC50 under setting [1] lay in the range of 100 to 1000 nM and the IC50 under setting [2] came to 234 nM.

Consider `O=C(c1cnc2c(c1)C(O)(C(F)(F)F)c1ccccc1-2)N1CCC1` (stereo not shown) [compound 213], for which the IC50 runs as follows: under setting [1], 100 to 1000 nM; under setting [2], 173 nM.

Turning to `O=C(O)CCn1cc(-c2cc(F)cc3c2-c2ccccc2[C@]3(O)C(F)(F)F)cn1` (stereo in doubt) [compound 543], the IC50 by setting is: under setting [4], 36 nM; under setting [1], less than 100 nM.

In the case of `OC1(C(F)(F)F)c2ccccc2-c2ccc(/C=C/c3ccccc3)cc21` (stereo not shown) [compound 252], the IC50 runs as follows: under setting [1], more than 1000 nM; under setting [2], 1270 nM.

With `CNC(=O)Cn1cc(-c2cc(F)cc3c2-c2ccccc2C3(O)C(F)(F)F)cn1` (stereo not shown) [compound 515], the IC50 is less than 100 nM under setting [1] and 38 nM under setting [2].

Take `CC(C)(C)CCc1cc(-c2cnn(C(CO)CO)c2)c2c(c1)C(O)(C(F)(F)F)c1ccccc1-2` (single isomer, unassigned) [compound 669]: the IC50 under setting [3] was less than 100 nM and the IC50 under setting [2] is 17 nM.

In the case of `CS(=O)(=O)c1cccc2c1-c1ccccc1C2(O)C(F)(F)F` (stereo not shown) [compound 143], the IC50 was more than 1000 nM under setting [1] and more than 10000 nM under setting [2].

As to `Cn1cc(-c2cc(N3CCOCC3)cc3c2-c2ccccc2C3(O)C(F)(F)F)cn1` (stereo not shown) [compound 569], the IC50 reads like this: under setting [1], less than 100 nM; under setting [2], 44 nM.

As to `CC(C)(C)n1cc(-c2ccc3c(c2)C(O)(C(F)(F)F)c2cccc(CO)c2-3)cn1` (stereo not shown) [compound 602], the IC50 was more than 1000 nM (read-out: PDHK inhibitory activity (class symbol)) and more than 1000 nM under setting [2].

In the case of `Cc1cc(C(=O)N2CCC2)cc2c1-c1ccccc1C2(O)C(F)(F)F` (single isomer, unassigned) [compound 136], the IC50 under setting [1] is less than 100 nM and the IC50 under setting [2] was found to be 25 nM.

On to `CCc1cc(-c2cnn(C(CO)CO)c2)c2c(c1)C(O)(C(F)(F)F)c1ccccc1-2` (stereo not shown) [compound 653], for which the IC50 reads like this: under setting [3], less than 100 nM; under setting [2], 37 nM.

With `OCCn1cc(-c2cc(OCCC34CC5CC(CC(C5)C3)C4)cc3c2-c2ccccc2C3(O)C(F)(F)F)cn1` (stereo not shown) [compound 509], the IC50 is less than 100 nM under setting [1] and 51 nM under setting [2].

Take `NC(=O)Cn1cc(-c2cc(Cl)cc3c2-c2ccccc2C3(O)C(F)(F)F)cn1` (stereo not shown) [compound 506]: the IC50 is less than 100 nM under setting [1] and 30 nM under setting [2].

For the compound `CN(C)CCCOc1ccc2c(c1)C(O)(C(F)(F)F)c1ccccc1-2` (stereo not shown) [compound 333], the IC50 is 100 to 1000 nM under setting [1] and 924 nM under setting [2].

For the compound `O=C(c1cc(CO)c2c(c1)C(O)(C(F)(F)F)c1ccccc1-2)N1CCC1` (stereo not shown) [compound 556], the IC50 was less than 100 nM under setting [1] and 53 nM under setting [2].

Take `NC(=O)CCn1cc(-c2cccc3c2-c2ccccc2C3(O)C(F)(F)F)cn1` (stereo not shown) [compound 486]: the IC50 was less than 100 nM under setting [1] and 55 nM under setting [2].

Take `C/C=C/c1ccc2c(c1)C(O)(C(F)(F)F)c1ccccc1-2` (stereo not shown) [compound 248]: the IC50 under setting [1] was more than 1000 nM and the IC50 under setting [2] was found to be 1020 nM.

For the compound `O=C(O)COc1ccc2c(c1)C(O)(C(F)(F)F)c1ccccc1-2` (stereo not shown) [compound 287], the IC50 was more than 1000 nM under setting [1] and more than 10000 nM under setting [2].

Take `CC(=O)c1cc(-c2cnn(C)c2)cc2c1-c1ccccc1C2(O)C(F)(F)F` (stereo not shown) [compound 596]: the IC50 is, setting by setting: under setting [1], less than 100 nM; under setting [2], 41 nM.

As to `NC(=O)COc1cc(-c2cncnc2)c2c(c1)C(O)(C(F)(F)F)c1ccccc1-2` (stereo not shown) [compound 363], the IC50 runs as follows: under setting [1], less than 100 nM; under setting [2], 47 nM.

Turning to `OC1(C(F)(F)F)c2ccccc2-c2c(-c3cncnc3)cccc21` (stereo not shown) [compound 300], the IC50 reads like this: under setting [1], 100 to 1000 nM; under setting [2], 114 nM.

In the case of `OC1(C(F)(F)F)c2ccccc2-c2ccc(Nc3ccccc3)cc21` (stereo not shown) [compound 166], the IC50 is, setting by setting: under setting [1], more than 1000 nM; under setting [2], 5900 nM.

`COC(=O)COC1CN(C(=O)c2ccc3c(c2)C(O)(C(F)(F)F)c2ccccc2-3)C1` (stereo not shown) [compound 115]: the IC50 reads like this: under setting [1], 100 to 1000 nM; under setting [2], 417 nM.

On to `N#Cc1cccc(-c2ccc3c(c2)C(O)(C(F)(F)F)c2ccccc2-3)c1` (stereo not shown) [compound 214], for which the IC50 under setting [1] lay in the range of 100 to 1000 nM and the IC50 under setting [2] stood at 345 nM.

With `OCCc1ccc2c(c1)C(O)(C(F)(F)F)c1ccccc1-2` (stereo not shown) [compound 405], the IC50 is more than 1000 nM under setting [1] and 6380 nM under setting [2].

For `CC(=O)NCCOc1ccc2c(c1)C(O)(C(F)(F)F)c1ccccc1-2` (stereo not shown) [compound 325], the IC50 by setting is: under setting [1], more than 1000 nM; under setting [2], 1080 nM.

Consider `O=C(O)C1CCN1C(=O)c1ccc2c(c1)C(O)(C(F)(F)F)c1ccccc1-2` (stereo not shown) [compound 314], for which the IC50 under setting [1] is more than 1000 nM and the IC50 under setting [2] is more than 10000 nM.

For the compound `CCOC(=O)C1CCN(c2ccc3c(c2)C(O)(C(F)(F)F)c2ccccc2-3)CC1` (stereo not shown) [compound 223], the IC50 is, setting by setting: under setting [1], more than 1000 nM; under setting [2], 2330 nM.

Turning to `Cc1cc(-c2cnn(CCO)c2)c2c(c1)[C@@](O)(C(F)(F)F)c1ccccc1-2` (stereo in doubt) [compound 529], the IC50 by setting is: under setting [4], 17 nM; under setting [1], less than 100 nM.

`OC1(C(F)(F)F)c2ccccc2-c2cc(Cl)ccc21` (stereo not shown) [compound 9]: the IC50 was more than 1000 nM under setting [1] and 20000 nM under setting [2].

As for `CC1CCCN1C(=O)c1ccc2c(c1)C(O)(C(F)(F)F)c1ccccc1-2` (stereo not shown) [compound 77], the IC50 under setting [1] was more than 1000 nM and the IC50 under setting [2] is 2500 nM.

Consider `Cn1cc(-c2cnc3c(c2)C(O)(C(F)(F)F)c2ccccc2-3)cn1` (stereo not shown) [compound 562], for which the IC50 was less than 100 nM under setting [1] and 59 nM under setting [2].

Consider `COC(=O)N1CCN(c2ccc3c(c2)C(O)(C(F)(F)F)c2ccccc2-3)CC1` (stereo not shown) [compound 210], for which the IC50 is more than 1000 nM under setting [1] and 1330 nM under setting [2].

`CC(C)Cc1cc(-c2cnn(C(CO)CO)c2)c2c(c1)C(O)(C(F)(F)F)c1ccccc1-2` (single isomer, unassigned) [compound 665]: the IC50 under setting [3] was less than 100 nM and the IC50 under setting [2] amounted to 23 nM.

As for `OC1(C(F)(F)F)c2ccccc2-c2ncc(Cl)cc21` (stereo not shown) [compound 36], the IC50 under setting [1] lay within 100 to 1000 nM and the IC50 under setting [2] was found to be 626 nM.

Turning to `NC(=O)COc1cc(-c2cnn(CCO)c2)c2c(c1)C(O)(C(F)(F)F)c1ccccc1-2` (single isomer, unassigned) [compound 477], the IC50 runs as follows: under setting [1], less than 100 nM; under setting [2], 18 nM.

On to `CCC(=O)c1cccc2c1-c1ccccc1C2(O)C(F)(F)F` (stereo not shown) [compound 81], for which the IC50 under setting [1] is more than 1000 nM and the IC50 under setting [2] is 2760 nM.

For `CNC(=O)c1ccccc1-c1ccc2c(c1)C(O)(C(F)(F)F)c1ccccc1-2` (stereo not shown) [compound 183], the IC50 is more than 1000 nM under setting [1] and more than 10000 nM under setting [2].

Take `CC(=O)c1cc(-c2cnn(CCO)c2)cc2c1-c1ccccc1C2(O)C(F)(F)F` (stereo not shown) [compound 585]: the IC50 reads like this: under setting [1], less than 100 nM; under setting [2], 26 nM.

In the case of `Cc1cc(C(=O)N2CC(OCC(N)=O)C2)cc2c1-c1ccccc1C2(O)C(F)(F)F` (stereo not shown) [compound 352], the IC50 under setting [1] lay in the range of 100 to 1000 nM and the IC50 under setting [2] came to 109 nM.

As for `OC1(C(F)(F)F)c2ccccc2-c2ccc(N3CCCCC3)cc21` (stereo not shown) [compound 148], the IC50 is, setting by setting: under setting [1], more than 1000 nM; under setting [2], 8450 nM.

`OC1(C(F)(F)F)c2ccccc2-c2c(Cl)cc(F)cc21` (stereo not shown) [compound 525]: the IC50 by setting is: under setting [1], 100 to 1000 nM; under setting [2], 677 nM.

Take `Cn1cc(-c2cc(C(=O)N3CC(O)C3)cc3c2-c2ccccc2C3(O)C(F)(F)F)cn1` (stereo not shown) [compound 373]: the IC50 by setting is: under setting [1], less than 100 nM; under setting [2], 49 nM.

Regarding `OCCn1cc(-c2cc(Cl)cc3c2-c2ccccc2C3(O)C(F)(F)F)cn1` (stereo not shown) [compound 460], the IC50 reads like this: under setting [1], less than 100 nM; under setting [2], 30 nM.

Regarding `COC(=O)Cc1ccc2c(c1)C(O)(C(F)(F)F)c1ccccc1-2` (stereo not shown) [compound 353], the IC50 reads like this: under setting [1], more than 1000 nM; under setting [2], 7400 nM.

In the case of `OC1(C(F)(F)F)c2ccccc2-c2c(-c3cnn(C45CC6CC(CC(C6)C4)C5)c3)cccc21` (stereo not shown) [compound 522], the IC50 runs as follows: under setting [1], less than 100 nM; under setting [2], 61 nM.
